Values of other authors as cited in patent US20250107560A1, “CHRONOBIOLOGICAL FOOD FOR INFANTS AND METHOD FOR PRODUCING SAME” (priority 2022, published 2025).

Tests used:
[1] = molecular target: carrier albumin (Homo sapiens, UniProt P02768); details: compared with D-tryptophan
[2] = unlike D-tryptophan

carrier albumin, sequence (P02768 25-609): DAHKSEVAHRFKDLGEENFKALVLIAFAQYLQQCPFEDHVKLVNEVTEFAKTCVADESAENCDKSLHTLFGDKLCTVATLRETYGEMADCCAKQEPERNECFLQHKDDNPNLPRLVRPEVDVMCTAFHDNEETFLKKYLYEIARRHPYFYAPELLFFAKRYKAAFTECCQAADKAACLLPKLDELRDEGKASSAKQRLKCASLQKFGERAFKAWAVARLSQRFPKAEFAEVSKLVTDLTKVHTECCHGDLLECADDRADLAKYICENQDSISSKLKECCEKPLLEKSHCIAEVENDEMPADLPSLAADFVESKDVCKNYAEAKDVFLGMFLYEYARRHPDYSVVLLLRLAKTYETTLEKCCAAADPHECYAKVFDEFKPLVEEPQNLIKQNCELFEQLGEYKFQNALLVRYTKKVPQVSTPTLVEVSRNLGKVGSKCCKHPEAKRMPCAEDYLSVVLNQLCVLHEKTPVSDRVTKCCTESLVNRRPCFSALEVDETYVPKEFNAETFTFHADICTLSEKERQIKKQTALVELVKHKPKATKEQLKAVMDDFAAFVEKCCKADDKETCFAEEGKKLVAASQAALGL

| biological half-life (in vivo) | binding to the carrier albumin, relative to D-tryptophan [1] | Structure (SMILES) | excreted in the urine as 6-sulfatoxymelatonin (metabolized in the liver) | toxicity [2] |
| --- | --- | --- | --- | --- |
| 30-45 minutes |  | COc1ccc2[nH]cc(CCNC(C)=O)c2c1 [Melatonin, melatonin] | approx. 95% |  |
|  | 100 times | N[C@@H](Cc1c[nH]c2ccccc12)C(=O)O [L-tryptophan] |  | non-toxic |
